Test results published in patent US9169237B1, “Antiprotozoal amidine compounds” (Medi Synergics, LLC, priority 2014, dated 2015).

Test system: T. brucei brucei
Assay: T. brucei brucei growth inhibition assay
Format: cell-based, Trypanosoma brucei brucei clone 427-221a (bloodstream forms)
Details: Trypanosoma brucei; bloodstream forms, T. brucei brucei clone 427-221a; 40 hours at 37° C.; 0.5% DMSO; ATP-bioluminescence; read-out: IC50 (μM) (95% Confidence Intervals)
Protocol: The growth inhibition assay for T. brucei brucei was conducted as described previously by Z. B. Mackey et al (Kenny K. H. Ang, Joseline Ratnam, Jiri Gut, Jennifer Legac, Elizabeth Hansell, Zachary B. Mackey, Katarzyna M. Skrzypczynska, Anjan Debnath, Juan C. Engel, Philip J. Rosenthal, James H. McKerrow, Michelle R. Arkin, Adam R. Renslo (2011) “Mining a Cathepsin Inhibitor Library for New Antiparasitic Drug Leads”, PLoS Neglected Tropical Diseases, 5(5):e1023). Bloodstream forms of the monomorphic T. brucei brucei clone 427-221a were grown in complete HMI-9 medium containing 10% FBS, 10% Serum Plus medium (Sigma Inc., St. Louis, Mo., USA), 50 U/mL penicillin and […] streptomycin (Invitrogen) at 37° C. under a humidified atmosphere and 5% CO2. Inhibitor stocks were prepared in 100% DMSO and screened at […] for percent inhibition values or serially diluted from […] in 10% DMSO for […] determinations. […] of each dilution was added to […] of diluted parasites ([…]) in sterile Greiner 96-well flat white opaque culture plates such that the final DMSO concentration was 0.5%. The 0% inhibition control wells contained 0.5% DMSO while 100% inhibition control wells contained […] thimerosal (Sigma). After compound addition, plates were incubated for 40 hours at 37° C. At the end of the incubation period, […] of CellTiter-GIo™ reagent (Promega Inc., Madison, Wis., USA) was added to each well and plates were placed on an orbital shaker at room temperature for 2 min to induce lysis. After an additional 10 min of incubation without shaking to stabilize the signal, the ATP-bioluminescence of each well was determined using an Analyst HT plate reader (Molecular Devices, Sunnyvale, Calif., USA). Raw values were converted to log 10 and percentage inhibition calculated relative to the controls. IC50 curve fittings were performed with Prism 4 software as above. Pentamidine was used as a comparator in the assay.

IC50 [µM]	Compound
10	CC(=N)N(C)CCCC1(c2ccc(F)cc2)OCc2cc(C#N)ccc21 (stereo not drawn) [Example 1, N-{3-[5-cyano-1-(4-fluorophenyl)-1,3-dihydro-2-benzofuran-1-yl]propyl}-N-methyl-ethanimidamide]
1.1	CN(CCCC1(c2ccc(F)cc2)OCc2cc(C#N)ccc21)C(=N)c1ccccc1 (stereo not drawn) [Example 2, N-{3-[5-cyano-1-(4-fluorophenyl)-1,3-dihydro-2-benzofuran-1-yl]propyl}-N-methyl-phenylmethanimidamide]
20	CN(CCCC1(c2ccc(F)cc2)OCc2cc(C#N)ccc21)C1=NCCCC1 (stereo not drawn) [Example 3, 1-(4-fluorophenyl)-1-{3-[methyl(3,4,5,6-tetrahydropyridin-2-yl)amino]propyl}-1,3-dihydro-2-benzo-furan-5-carbonitrile]
